The text below walks through data of patent US20250230155A1 (Vanderbilt University, priority 2021, published 2025).

For the test, the target named is T1, human mAChR M4 (Homo sapiens, UniProt P08173).
T1 construct: expressed in transfected cells
T1 sequence (P08173 1-479): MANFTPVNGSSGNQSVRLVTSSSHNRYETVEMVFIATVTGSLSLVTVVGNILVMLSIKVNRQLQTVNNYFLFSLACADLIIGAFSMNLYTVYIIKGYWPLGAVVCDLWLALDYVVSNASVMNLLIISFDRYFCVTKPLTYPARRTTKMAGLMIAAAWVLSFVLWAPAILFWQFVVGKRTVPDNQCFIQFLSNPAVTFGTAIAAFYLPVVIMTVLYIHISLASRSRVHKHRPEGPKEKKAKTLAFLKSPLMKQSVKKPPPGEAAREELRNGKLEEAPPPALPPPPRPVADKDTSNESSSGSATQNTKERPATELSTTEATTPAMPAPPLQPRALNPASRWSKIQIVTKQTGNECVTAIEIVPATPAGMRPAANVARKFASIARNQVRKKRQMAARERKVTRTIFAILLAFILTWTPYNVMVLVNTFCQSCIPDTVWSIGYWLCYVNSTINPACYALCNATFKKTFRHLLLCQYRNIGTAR
The test can be described thus: mAChR M4 cell-based functional assay (calcium mobilization, CHO-K1 hM4-Gqi5 cells). As to conditions: for Emax at 30 µM: CHO-K1, % ACh maximum at 30 μM, human M4; for EC50: positive allosteric modulator activity, increase in the EC20 acetylcholine response, CHO-K1 hM4-Gqi5 cells, read-out: Human M4 EC50. In short, it runs like this:
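Fluorescent calcium read-out (Fluo-4 AM, FDSS, 1 Hz) in hM4-Gqi5 CHO-K1 cells, 11-point 1:3 compound series. Agonism scored on compound addition, PAM activity as increase of the 144 s EC20 acetylcholine response, antagonism as decrease of the 230 s EC80 response; four-parameter logistic fits give EC50 and Emax.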
A general note: Calcium assays in cells follow changes in intracellular calcium, usually with a dye or a luminescent sensor.

Usually Emax stands for the size of the effect at its maximum, as opposed to the concentration needed. The EC50 is the concentration at which the effect is half-maximal. Turning to `[2H]C([2H])(NC(=O)c1cc(C)c(N2CCc3ncc(N4CCCn5nccc54)cc3C2)nn1)c1ccncc1` [Example 509, 6-(3-(6,7-dihydropyrazolo[1,5-a]pyrimidin-4(5H)-yl)-7,8-dihydro-1,6-naphthyridin-6(5H)-yl)-5-methyl-N-(pyridin-4-ylmethyl-d2)pyridazine-3-carboxamide], the Emax at 30 µM came to 104% and the EC50 was found to be 12 nM. The corresponding values for `COc1cc(-c2cnc3c(c2)CN(c2ncc(C#N)cc2C)CC3)c(Cl)cn1` [Example 341, 6-(3-(5-chloro-2-methoxypyridin-4-yl)-7,8-dihydro-1,6-naphthyridin-6(5H)-yl)-5-methylnicotinonitrile] are 49% and 1490 nM. The corresponding values for `Cc1nc(Cl)c(C)c(N2CCc3ncc(-c4cnc(C)s4)cc3C2)n1` [compound 199, 5-[6-(6-chloro-2,5-dimethyl-pyrimidin-4-yl)-7,8-dihydro-5H-1,6-naphthyridin-3-yl]-2-methyl-thiazole] are 81% and 140 nM.

Consider `Cc1cc(C(=O)NCc2ccc(Cl)nc2Cl)cnc1N1CCc2ncc(-c3cn(C)nc3C)cc2C1` [Example 462, N-((2,6-dichloropyridin-3-yl)methyl)-6-(3-(1,3-dimethyl-1H-pyrazol-4-yl)-7,8-dihydro-1,6-naphthyridin-6(5H)-yl)-5-methylnicotinamide], for which the Emax at 30 µM was 72% and the EC50 turned out to be 714 nM. The corresponding values for `Cc1cc(C(=O)NCC2CCOCC2)cnc1N1CCc2ncc(-c3cn(C)nc3C)cc2C1` [Example 459, 6-(3-(1,3-dimethyl-1H-pyrazol-4-yl)-7,8-dihydro-1,6-naphthyridin-6(5H)-yl)-5-methyl-N-((tetrahydro-2H-pyran-4-yl)methyl)nicotinamide] are 71% and 1190 nM. The corresponding values for `Cc1cc(C#N)cnc1N1CCc2ncc(N3CCOC(c4ccccn4)C3)cc2C1` (stereo not drawn) [Example 387, 5-methyl-6-(3-(2-(pyridin-2-yl)morpholino)-7,8-dihydro-1,6-naphthyridin-6(5H)-yl)nicotinonitrile] are 71% and 861 nM. Regarding `Cc1cc(C#N)cnc1N1CCc2ncc(-c3cc(F)ncc3F)cc2C1` [Example 337, 6-(3-(2,5-difluoropyridin-4-yl)-7,8-dihydro-1,6-naphthyridin-6(5H)-yl)-5-methylnicotinonitrile], the Emax at 30 µM is 71% and the EC50 turned out to be 270 nM.

Regarding `Cc1nc(C(F)(F)F)nc(N2CCc3ncc(C(F)(F)F)cc3C2)c1C` [compound 252, 6-(5,6-dimethyl-2-(trifluoromethyl)pyrimidin-4-yl)-3-(trifluoromethyl)-5,6,7,8-tetrahydro-1,6-naphthyridine], the Emax at 30 µM was 75% and the EC50 was 1030 nM.

As for `Fc1ccccc1Oc1cnc2c(c1)CN(c1nc(Cl)nc3c1COC3)CC2` [compound 290, 2-chloro-4-(3-(2-fluorophenoxy)-7,8-dihydro-1,6-naphthyridin-6(5H)-yl)-5,7-dihydrofuro[3,4-d]pyrimidine], the EC50 worked out at 991 nM. Take `Cc1cc(C#N)cnc1N1CCc2ncc(-c3c(C)nn(C)c3C)cc2C1` [compound 107, 5-methyl-6-[3-(1,3,5-trimethylpyrazol-4-yl)-7,8-dihydro-5H-1,6-naphthyridin-6-yl]pyridine-3-carbonitrile]: the Emax at 30 µM was determined as 98% and the EC50 was found to be 142 nM. The corresponding values for `COc1ccc(Oc2cnc3c(c2)CN(c2nnc(C#N)c(C)c2C)CC3)cn1` [Example 302, 6-(3-((6-methoxypyridin-3-yl)oxy)-7,8-dihydro-1,6-naphthyridin-6(5H)-yl)-4,5-dimethylpyridazine-3-carbonitrile] are 48% and 1710 nM. The corresponding values for `Cc1cc(C(=O)NCc2ccc3ncccc3c2)cnc1N1CCc2ncccc2C1` [compound 68, 6-(7,8-dihydro-5H-1,6-naphthyridin-6-yl)-5-methyl-N-(6-quinolylmethyl)pyridine-3-carboxamide] are 43% and 3140 nM. The corresponding values for `[2H]C1([2H])Cc2ncc(Nc3ccncc3F)cc2C([2H])([2H])N1c1nnc(C#N)c(C)c1C` [Example 608, 6-(3-((3-fluoropyridin-4-yl)amino)-7,8-dihydro-1,6-naphthyridin-6(5H)-yl-5,5,7,7-d4)-4,5-dimethylpyridazine-3-carbonitrile] are 83% and 4 nM. On to `Cc1cc(C(=O)N2CC(c3cccnc3)C2)nnc1N1CCc2ncc(N3CCO[C@H](C)C3)cc2C1` [Example 541, (R)-(5-methyl-6-(3-(2-methylmorpholino)-7,8-dihydro-1,6-naphthyridin-6(5H)-yl)pyridazin-3-yl)(3-(pyridin-3-yl)azetidin-1-yl)methanone], for which the Emax at 30 µM is 101% and the EC50 was found to be 61 nM. The corresponding values for `Cc1c(C#N)nnc(N2Cc3cc(C(F)(F)F)cnc3C(C)C2)c1C` (stereo not drawn) [Example 348, 4,5-dimethyl-6-(8-methyl-3-(trifluoromethyl)-7,8-dihydro-1,6-naphthyridin-6(5H)-yl)pyridazine-3-carbonitrile] are 70% and 331 nM. The corresponding values for `Cc1cc(C(=O)N2CCN(C)CC2)nnc1N1CCc2ncc(N3CCCn4nccc43)cc2C1` [Example 514, (6-(3-(6,7-dihydropyrazolo[1,5-a]pyrimidin-4(5H)-yl)-7,8-dihydro-1,6-naphthyridin-6(5H)-yl)-5-methylpyridazin-3-yl)(4-methylpiperazin-1-yl)methanone] are 103% and 635 nM. The corresponding values for `Cc1nn(C)cc1-c1cnc2c(c1)CN(c1nc(CO)nc(C)c1C)CC2` [compound 226, (4-(3-(1,3-dimethyl-1H-pyrazol-4-yl)-7,8-dihydro-1,6-naphthyridin-6(5H)-yl)-5,6-dimethylpyrimidin-2-yl)methanol] are 89% and 346 nM. In the case of `Cc1c(C#N)nnc(N2CCc3ncc(-c4cncnc4)cc3C2)c1C` [compound 49, 4,5-dimethyl-6-(3-pyrimidin-5-yl-7,8-dihydro-5H-1,6-naphthyridin-6-yl)pyridazine-3-carbonitrile], the Emax at 30 µM amounted to 60% and the concentration giving a half-maximal response (EC50) is 868 nM. The corresponding values for `Cc1cc(C(=O)NC2(c3cccnc3)CC2)nnc1N1CCc2ncc(N3CCCn4nccc43)cc2C1` [Example 553, 6-(3-(6,7-dihydropyrazolo[1,5-a]pyrimidin-4(5H)-yl)-7,8-dihydro-1,6-naphthyridin-6(5H)-yl)-5-methyl-N-(1-(pyridin-3-yl)cyclopropyl)pyridazine-3-carboxamide] are 80% and 21 nM.

For `Cc1cc(C(=O)N(C)Cc2ccncc2)cnc1N1CCc2ncc(-c3cn(C)nc3C)cc2C1` [Example 454, 6-(3-(1,3-dimethyl-1/-pyrazol-4-yl)-7,8-dihydro-1,6-naphthyridin-6(5H)-yl)-N,5-dimethyl-N-(pyridin-4-ylmethyl)nicotinamide], the Emax at 30 µM came to 60% and the EC50 is 3900 nM.

For `Cc1cc(C(=O)NCc2ccnn2C)cnc1N1CCc2ncccc2C1` [compound 63, 6-(7,8-dihydro-5H-1,6-naphthyridin-6-yl)-5-methyl-N-[(2-methylpyrazol-3-yl)methyl]pyridine-3-carboxamide], the Emax at 30 µM stood at 68% and the half-maximal effective concentration (EC50) was found to be 2710 nM. With `COCc1nc(Cl)c(C)c(N2CCc3ncc(Br)cc3C2)n1` [compound 211, 3-bromo-6-(6-chloro-2-(methoxymethyl)-5-methylpyrimidin-4-yl)-5,6,7,8-tetrahydro-1,6-naphthyridine], the EC50 came to 123 nM. For the same compound, the maximal effect (Emax) (CHO-K1) is 99%.

On to `Cc1c(C#N)nnc(N2CCc3ncc(-c4ccc(N5CCN(C6CC6)CC5)nc4)cc3C2)c1C` [Example 335, 6-(3-(6-(4-cyclopropylpiperazin-1-yl)pyridin-3-yl)-7,8-dihydro-1,6-naphthyridin-6(5H)-yl)-4,5-dimethylpyridazine-3-carbonitrile], for which the Emax at 30 µM worked out at 41% and the EC50 came out at 386 nM. The corresponding values for `Cc1cc(C(=O)N2CC(F)C2)nnc1N1CCc2ncc(N3CCO[C@H](C)C3)cc2C1` [Example 572, (R)-(3-fluoroazetidin-1-yl)(5-methyl-6-(3-(2-methylmorpholino)-7,8-dihydro-1,6-naphthyridin-6(5H)-yl)pyridazin-3-yl)methanone] are 87% and 51 nM. Take `Cc1ccc(F)c(Nc2cnc3c(c2)CN(c2nnc(C#N)c(C)c2C)CC3)c1` [Example 37]: the Emax at 30 µM turned out to be 57% and the EC50 was 438 nM. The corresponding values for `Cc1c(C#N)nnc(N2CCc3ncc(Nc4ncc(F)cc4F)cc3C2)c1C` [compound 78, 6-[3-[(3,5-difluoro-2-pyridyl)amino]-7,8-dihydro-5H-1,6-naphthyridin-6-yl]-4,5-dimethyl-pyridazine-3-carbonitrile] are 65% and 324 nM.
